# Structures can show the parent of a compound that is named as a salt.
# Target: T1, mGluR5 receptor (pig) (Sus scrofa, UniProt I3LUI7)
# T1 construct: 450 μg protein from brain homogenate is incubated with 5 nM; from tissue; host or cells: pig brain halves without medulla, cerebellum and pons; homogenate, differential centrifugation
# Assay: [3H]-MPEP binding assay, pig brain homogenate
# Details: displacement of 5 nM [3H]-MPEP, 450 μg protein from pig brain homogenate, 60 min, room temperature; read-out: IC50 [3H]-MPEP bond mGluR5 receptor (pig)
# Procedure: Substituted imidazo[2,1-b]thiazole compounds corresponding to the foregoing formula I are likewise particularly preferred, which, after 60 minutes of incubation in 450 μg protein from pig brain homogenate at a temperature between 20° C. and 25° C. in a concentration of less than 2500 nM, preferably less than 1000 nM, particularly preferably less than 700 nM, very particularly preferably less than 100 nM, even more preferably less than 70 nM, bring about a 50-percent displacement of [^3H]-2-methyl-6-(3-methoxyphenyl)-ethynylpyridine which is present in a concentration of 5 nM. The determination of the displacement of [^3H]-2-methyl-6-(3-methoxyphenyl)-ethynyl-pyridine is performed as described hereinafter in the section Pharmacological Methods, I. Method for determining the inhibition of [^3H]-MPEP-bonding in the mGluR5 receptor bonding assay.
# 1. Method for Determining the Affinity to the mGluR5 Receptor
# Pig brain homogenate is produced by homogenization (Polytron PT 3000, Kinematica AG, 10,000 rpm for 90 seconds) of pig brain halves without medulla, cerebellum and pons in buffer pH 8.0 (30 mM Hepes, Sigma, order no. H3375+1 tablet complete to 100 ml, Roche Diagnostics, order no. 1836145) in ratio 1:20 (brain weight/volume) and differential centrifugation at 900×g and 40,000×g. In each case, 450 μg protein from brain homogenate is incubated with 5 nM ^3-[H]-MPEP (Tocris, order no. R1212) (MPEP=2-methyl-6-(3-methoxyphenyl)-ethynylpyridine) in 250 μl incubation batches in 96 well microtitration plates and the compounds to be tested (10 μM in the test) in buffer (as above) at room temperature for 60 min.
# Thereafter, the batches are filtered with the help of a Brandel Cell Harvester (Brandel, TYP Robotic 9600) on unifilter plates with glass fibre filter mats (Perkin Elmer, order no. 6005177) and subsequently washed with buffer (as above) 3 times with in each case 250 μl per sample. The filter plates are subsequently dried for 60 min at 55° C. 30 μL Ultima Gold™ scintillator is subsequently added per well (Packard BioScience, order no. 6013159) and the samples are measured after 3 hours on the β-counter (Mikrobeta, Perkin Elmer). The unspecific bond is determined by addition of 10 μM MPEP (Tocris, order no. 1212).
# T1 sequence (I3LUI7 19-1212): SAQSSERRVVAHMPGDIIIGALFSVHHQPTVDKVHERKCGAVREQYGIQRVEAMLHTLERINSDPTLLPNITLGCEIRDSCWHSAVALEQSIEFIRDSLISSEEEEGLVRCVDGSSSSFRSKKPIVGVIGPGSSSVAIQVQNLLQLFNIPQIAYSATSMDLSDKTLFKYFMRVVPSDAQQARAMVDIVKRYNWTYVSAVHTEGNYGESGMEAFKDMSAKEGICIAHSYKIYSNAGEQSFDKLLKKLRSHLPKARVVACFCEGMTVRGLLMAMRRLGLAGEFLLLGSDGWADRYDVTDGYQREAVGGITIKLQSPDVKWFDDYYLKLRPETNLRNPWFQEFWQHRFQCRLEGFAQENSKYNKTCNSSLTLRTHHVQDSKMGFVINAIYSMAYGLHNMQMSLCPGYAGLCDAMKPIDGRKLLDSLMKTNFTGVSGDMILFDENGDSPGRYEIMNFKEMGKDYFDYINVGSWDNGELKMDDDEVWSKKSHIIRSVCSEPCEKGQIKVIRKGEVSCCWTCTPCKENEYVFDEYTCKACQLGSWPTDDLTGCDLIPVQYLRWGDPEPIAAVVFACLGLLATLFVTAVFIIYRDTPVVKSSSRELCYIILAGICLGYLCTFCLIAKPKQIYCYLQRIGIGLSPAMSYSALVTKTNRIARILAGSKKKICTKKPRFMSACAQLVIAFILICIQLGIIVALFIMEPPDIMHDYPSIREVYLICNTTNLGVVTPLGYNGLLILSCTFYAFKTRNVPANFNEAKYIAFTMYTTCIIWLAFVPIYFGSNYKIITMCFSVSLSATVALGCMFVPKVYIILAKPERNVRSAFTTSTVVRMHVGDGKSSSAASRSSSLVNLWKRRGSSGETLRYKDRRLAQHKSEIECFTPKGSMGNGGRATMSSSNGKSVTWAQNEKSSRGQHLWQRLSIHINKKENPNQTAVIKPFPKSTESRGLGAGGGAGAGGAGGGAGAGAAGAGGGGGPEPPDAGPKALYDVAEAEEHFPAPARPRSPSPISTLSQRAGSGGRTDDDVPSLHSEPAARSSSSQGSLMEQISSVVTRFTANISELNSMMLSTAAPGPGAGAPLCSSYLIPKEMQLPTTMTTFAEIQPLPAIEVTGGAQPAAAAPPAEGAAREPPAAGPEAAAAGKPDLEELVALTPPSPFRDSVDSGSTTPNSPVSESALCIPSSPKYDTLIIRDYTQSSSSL
row,Compound,IC50 [nM]
1,"CC(C)(C)Nc1c(-c2ccc(C#Cc3ccccn3)s2)nc2sccn12 [Example 2, N-tert-butyl-6-(5-(pyridine-2-ylethynyl)thiophene-2-yl)imidazo[2,1-b]thiazole-5-amine]",6.3
2,"Cc1sc2nc(-c3ccc(C#Cc4ccccn4)s3)c(NC(C)(C)C)n2c1C [Example 5, N-tert-butyl-2,3-dimethyl-6-(5-(pyridine-2-ylethinyl)thiophene-2-yl)-imidazo[2,1-b]thiazole-5-amine hydrochloride]",17
3,"CC(C)(C)Nc1c(-c2ccc(C#Cc3ccccn3)s2)nc2sc(Cl)cn12 [Example 6, N-tert-butyl-2-chloro-6-(5-(pyridine-2-ylethinyl)thiophene-2-yl)-imidazo[2,1-b]thiazole-5-amine hydrochloride]",9.9
4,CC(C)(C)CC(C)(C)Nc1c(-c2ccc(C#Cc3ccccn3)s2)nc2sccn12 [Example 10],100
5,"CC(C)(C)Nc1c(-c2ccc(C#Cc3ccccn3)o2)nc2sccn12 [Example 12, N-tert-butyl-6-(5-(pyridine-2-ylethynyl)furan-2-yl)imidazo[2,1-b]thiazole-5-amine]",87
6,"Nc1c(-c2ccc(C#Cc3ccccn3)s2)nc2sccn12 [Example 14, 6-(5-(pyridine-2-ylethynyl)thiophene-2-yl)imidazo[2,1-b]thiazole-5-amine]",140
7,"CC(C)(C)Nc1c(-c2ccc(C#Cc3ncccn3)s2)nc2sccn12 [Example 15, N-tert-butyl-6-(5-(pyrimidine-2-ylethynyl)thiophene-2-yl)imidazo[2,1-b]thiazole-5-amine]",10
8,"CC(C)(C)Nc1c(-c2ccc(C#Cc3ncccc3F)s2)nc2sccn12 [Example 16, N-tert-butyl-6-(5-((3-fluoropyridine-2-yl)ethynyl)thiophene-2-yl)imidazo[2,1-b]thiazole-5-amine]",13
9,"CC(C)(C)Nc1c(-c2ccc(C#Cc3ccnc(F)c3)s2)nc2sccn12 [Example 17, N-tert-butyl-6-(5-((2-fluoropyridine-4-yl)ethynyl)thiophene-2-yl)imidazo[2,1-b]thiazole-5-amine]",18
10,"CC(C)(C)Nc1c(-c2ccc(C#Cc3cccc(O)c3)s2)nc2sccn12 [Example 20, 3-((5-(5-(tert-butylamino)imidazo[2,1-b]thiazole-6-yl)thiophene-2-yl)ethynyl)phenol]",170
11,"CC(C)(C)Nc1c(-c2ccc(C#Cc3cccc(C#N)c3)s2)nc2sccn12 [Example 21, 3-((5-(5-(tert-butylamino)imidazo[2,1-b]thiazole-6-yl)thiophene-2-yl)ethynyl)benzonitrile]",26
12,"Cc1cccnc1C#Cc1ccc(-c2nc3sccn3c2NC(C)(C)C)s1 [Example 23, N-tert-butyl-6-(5-((3-methylpyridine-2-yl)ethynyl)thiophene-2-yl)imidazo[2,1-b]thiazole-5-amine]",230

# Now from value to compound:
row,IC50 [nM],Compound
1,2180,"CC(C)(C)CC(C)(C)Nc1c(-c2ccc(C#Cc3ccccc3)s2)nc2sccn12 [Example 1, 6-(5-(phenylethynyl)thiophene-2-yl)-N-(2,4,4-trimethylpentane-2-yl)imidazo[2,1-b]thiazole-5-amine]"
2,12,"Cc1csc2nc(-c3ccc(C#Cc4ccccn4)s3)c(NC(C)(C)C)n12 [Example 3, N-tert-butyl-3-methyl-6-(5-(pyridine-2-ylethynyl)thiophene-2-yl)imidazo[2,1-b]thiazole-5-amine hydrochloride]"
3,160,"COC(=O)c1cn2c(NC(C)(C)C)c(-c3ccc(C#Cc4ccccn4)s3)nc2s1 [Example 8, 5-(tert-butylamino)-6-(5-(pyridine-2-ylethinyl)thiophene-2-yl)-imidazo[2,1-b]thiazole-2-carbonic acid methylester hydrochloride]"
4,20,"Cc1cn2c(NC(C)(C)C)c(-c3ccc(C#Cc4ccccn4)cc3)nc2s1 [Example 11, N-tert-butyl-2-methyl-6-(4-(pyridine-2-ylethynyl)phenyl)imidazo[2,1-b]thiazole-5-amine]"
5,45,"CC(C)(C)Nc1c(-c2ccc(C#Cc3cccs3)s2)nc2sccn12 [Example 18, N-tert-butyl-6-(5-(thiophene-2-ylethynyl)thiophene-2-yl)imidazo[2,1-b]thiazole-5-amine]"
6,24,"CC(C)(C)Nc1c(-c2ccc(C#Cc3nccs3)s2)nc2sccn12 [Example 19, N-tert-butyl-6-(5-(thiazole-2-ylethynyl)thiophene-2-yl)imidazo[2,1-b]thiazole-5-amine]"

# Same assay, conditions: test compound 10 μM; inhibition of [3H]-MPEP binding, pig brain homogenate
row,inhibition at 10 µM [%],Compound
1,48,"Cc1csc2nc(-c3ccc(C#Cc4ccccc4)s3)c(NC(C)(C)C)n12 [Example 13, N-tert-butyl-3-methyl-6-(5-(phenylethynyl)thiophene-2-yl)imidazo[2,1-b]thiazole-5-amine]"
2,82,"CCNc1c(-c2ccc(C#Cc3ccccc3)nc2)nc2sccn12 [Example 22, N-ethyl-6-(6-(phenylethynyl)pyridine-3-yl)imidazo[2,1-b]thiazole-5-amine]"

# Tested on: rat
# Assay: Formalin test in rats (phase 2, chronic pain component)
# Assay type: in vivo
# Details: iv, administered 30 min before formalin, observed 21 to 27 min after formalin injection
# Procedure: 2a. Formalin Test in Rats The formalin test (Dubuisson, D. and Dennis, S. G., 1977, Pain, 4, 161-174) represents a model for acute and chronic pain. A biphasic nociceptive reaction, which is recorded by observation of three clearly differentiable behavioural patterns, is induced by a single formalin injection into the dorsal side of a rear paw in freely mobile test animals. The reaction has two phases: Phase 1=Immediate reaction (duration up to 10 min; paw shaking, licking), Phase 2=Late reaction (after a rest phase; likewise, paw shaking, licking; duration up to 60 min). The 1st phase reflects a direct stimulation of the peripheral nocisensors with high spinal nociceptive input or glutamate release (acute pain phase); the 2nd phase reflects a spinal and peripheral hypersensitisation (chronic pain phase). In the investigations presented here, the chronic pain component (phase 2) was evaluated. Formalin with a volume of 50 μl and a concentration of 5% is administered subcutaneously into the dorsal side of the right rear paw of each animal. The substances to be tested are administered 30 min before the formalin injection orally (p.o), intravenously (i.v.) or intraperitoneally (i.p.). The specific changes in behavior such as lifting and shaking the paw, shifts in weight of the animal as well as biting and licking reactions are observed and registered in the period of observation from 21 to 27 min after formalin injection. The various forms of behavior are summarized in the so-called pain rate (PR), which, relative to the sub-intervals of 3 min, represents the calculation of an average nociception reaction. […] The group size is 10 animals (n=10). 2b. Formalin Test in Mice
row,Compound,ED50 [mg/kg]
1,"CC(C)(C)Nc1c(-c2ccc(C#Cc3ccccn3)s2)nc2sccn12 [Example 2, N-tert-butyl-6-(5-(pyridine-2-ylethynyl)thiophene-2-yl)imidazo[2,1-b]thiazole-5-amine]",0.47

# Same assay, conditions: p.o., 10 mg/kg, administered 30 min before formalin
row,Compound,Formalin test (rat) p.o. Reduction in the nociceptive behavior over controls at 10 mg/kg [%]
1,"CC(C)(C)Nc1c(-c2ccc(C#Cc3ccccn3)s2)nc2sccn12 [Example 2, N-tert-butyl-6-(5-(pyridine-2-ylethynyl)thiophene-2-yl)imidazo[2,1-b]thiazole-5-amine]",66
